# Results from ChEMBL document CHEMBL1159120, “2,4-Diamino-5-methyl-6-substituted arylthio-furo[2,3-d]pyrimidines as novel classical and nonclassical antifolates as potential dual thymidylate synthase and dihydrofolate reductase inhibitors” (Bioorg Med Chem, 2010).
# Columns and labels:
# Thymidylate synthase = Thymidylate synthase (Homo sapiens, UniProt P04818)
# Description: Inhibition of human thymidylate synthase at 30 degC under pH 7.4 by spectrophotometry
# Dihydrofolate reductase [1] = target: T1, Dihydrofolate reductase (Mycobacterium avium, UniProt O30463)
# T1 sequence (O30463 whole entry): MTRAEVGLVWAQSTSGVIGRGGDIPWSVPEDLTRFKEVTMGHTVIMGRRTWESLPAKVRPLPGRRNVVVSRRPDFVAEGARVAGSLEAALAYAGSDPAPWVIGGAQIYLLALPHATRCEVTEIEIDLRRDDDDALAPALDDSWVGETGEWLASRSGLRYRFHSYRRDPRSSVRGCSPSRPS
# Description: Inhibition of Mycobacterium avium DHFR at 37 degC by spectrophotometry
# Dihydrofolate reductase [2] = target: T2, Dihydrofolate reductase (Pneumocystis carinii, UniProt P16184)
# T2 sequence (P16184 whole entry): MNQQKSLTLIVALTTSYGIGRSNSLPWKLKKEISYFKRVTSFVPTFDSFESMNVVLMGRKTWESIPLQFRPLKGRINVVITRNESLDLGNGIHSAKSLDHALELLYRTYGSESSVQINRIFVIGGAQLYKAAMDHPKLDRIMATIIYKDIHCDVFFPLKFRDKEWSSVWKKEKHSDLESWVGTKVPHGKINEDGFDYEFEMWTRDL
# Description: Inhibition of Pneumocystis carinii DHFR at 37 degC by spectrophotometry
# Dihydrofolate reductase [3] = target: T3, Dihydrofolate reductase (Rattus norvegicus, UniProt Q920D2)
# T3 sequence (Q920D2 whole entry): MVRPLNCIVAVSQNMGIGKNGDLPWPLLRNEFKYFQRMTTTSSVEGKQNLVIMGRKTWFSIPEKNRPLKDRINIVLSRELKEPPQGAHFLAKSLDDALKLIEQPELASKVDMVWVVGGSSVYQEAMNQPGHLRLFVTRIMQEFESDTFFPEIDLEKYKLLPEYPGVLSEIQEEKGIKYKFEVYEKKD
# Description: Inhibition of rat liver DHFR at 37 degC by spectrophotometry
# [4] = target: T4, Bifunctional dihydrofolate reductase-thymidylate synthase (Toxoplasma gondii, UniProt Q07422)
# T4 sequence (Q07422 whole entry): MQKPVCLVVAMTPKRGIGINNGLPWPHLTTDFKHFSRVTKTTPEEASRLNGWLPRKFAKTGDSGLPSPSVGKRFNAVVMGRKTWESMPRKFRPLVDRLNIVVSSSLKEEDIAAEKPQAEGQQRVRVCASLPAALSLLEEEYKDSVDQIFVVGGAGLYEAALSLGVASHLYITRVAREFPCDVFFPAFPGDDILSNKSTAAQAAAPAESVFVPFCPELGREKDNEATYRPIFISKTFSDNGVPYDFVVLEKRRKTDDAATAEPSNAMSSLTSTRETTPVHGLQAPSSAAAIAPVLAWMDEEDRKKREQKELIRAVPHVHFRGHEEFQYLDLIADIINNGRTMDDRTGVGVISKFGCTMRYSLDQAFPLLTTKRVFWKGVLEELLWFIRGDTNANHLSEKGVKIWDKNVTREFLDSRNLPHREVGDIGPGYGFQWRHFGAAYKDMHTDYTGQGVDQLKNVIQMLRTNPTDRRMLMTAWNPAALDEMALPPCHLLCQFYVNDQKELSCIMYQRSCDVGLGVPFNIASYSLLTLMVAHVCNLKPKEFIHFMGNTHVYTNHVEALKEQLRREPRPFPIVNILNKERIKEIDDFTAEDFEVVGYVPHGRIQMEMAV
# Description: Inhibition of Toxoplasma gondii DHFR at 37 degC by spectrophotometry
# Dihydrofolate reductase [5] = target: T5, Dihydrofolate reductase (Escherichia coli, UniProt P0ABQ4)
# T5 sequence (P0ABQ4 whole entry): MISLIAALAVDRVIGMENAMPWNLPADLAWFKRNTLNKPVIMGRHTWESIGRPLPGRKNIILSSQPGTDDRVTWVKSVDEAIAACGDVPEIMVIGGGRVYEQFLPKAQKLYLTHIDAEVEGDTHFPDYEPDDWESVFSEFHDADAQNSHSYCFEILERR
# Description: Inhibition of Escherichia coli DHFR at 30 degC under pH 7.4 by spectrophotometry
# [6] = target: T4, Bifunctional dihydrofolate reductase-thymidylate synthase; remark: listed apart in the source
# Description: Inhibition of Toxoplasma gondii DHFR at 30 degC under pH 7.4 by spectrophotometry
# Dihydrofolate reductase [7] = target: T6, Dihydrofolate reductase (Homo sapiens, UniProt P00374)
# T6 sequence (P00374 whole entry): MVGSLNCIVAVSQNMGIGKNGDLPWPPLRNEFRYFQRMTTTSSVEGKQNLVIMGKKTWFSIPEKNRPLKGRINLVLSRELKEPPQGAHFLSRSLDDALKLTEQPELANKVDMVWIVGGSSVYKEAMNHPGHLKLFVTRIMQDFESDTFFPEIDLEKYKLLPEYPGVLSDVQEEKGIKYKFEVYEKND
# Description: Inhibition of human DHFR at 30 degC under pH 7.4 by spectrophotometry
# [8] = target: T4, Bifunctional dihydrofolate reductase-thymidylate synthase; remark: listed apart in the source
# [9] = target: T7, Dihydrofolate reductase (Rattus norvegicus) (UniProt Q920D2); experiment: Inhibition of rat liver DHFR at 196 uM under 37 degC by spectrophotometry
# T7 sequence (whole entry): T3 sequence (Q920D2 whole entry)
# [10] = target: T8, Dihydrofolate reductase (Mycobacterium avium) (UniProt O30463); settings: 196 uM
# T8 sequence (whole entry): T1 sequence (O30463 whole entry)
# [11] = target: T9, Dihydrofolate reductase (Pneumocystis carinii) (UniProt P16184); experiment: Inhibition of Pneumocystis carinii DHFR at 20 uM under 37 degC by spectrophotometry
# T9 sequence (whole entry): T2 sequence (P16184 whole entry)
# [12] = target: T8, Dihydrofolate reductase (Mycobacterium avium); experiment: Inhibition of Mycobacterium avium DHFR at 31 uM under 37 degC by spectrophotometry
# [13] = target: T9, Dihydrofolate reductase (Pneumocystis carinii); experiment: Inhibition of Pneumocystis carinii DHFR at 31 uM under 37 degC by spectrophotometry
# Chain of Thymidylate synthase (P04818 whole entry): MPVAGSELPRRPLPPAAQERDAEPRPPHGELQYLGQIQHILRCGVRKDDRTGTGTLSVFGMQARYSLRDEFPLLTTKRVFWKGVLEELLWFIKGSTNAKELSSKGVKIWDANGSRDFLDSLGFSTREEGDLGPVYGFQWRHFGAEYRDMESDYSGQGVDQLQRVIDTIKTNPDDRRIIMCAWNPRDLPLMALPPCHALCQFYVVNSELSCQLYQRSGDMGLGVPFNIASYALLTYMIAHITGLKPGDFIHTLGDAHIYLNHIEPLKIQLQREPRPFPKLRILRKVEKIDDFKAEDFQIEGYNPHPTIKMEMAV
Compound,IC50 (Dihydrofolate reductase [1]) [µM],IC50 (Dihydrofolate reductase [2]) [µM],IC50 (Dihydrofolate reductase [3]) [µM],also measured
Nc1nc(N)c2c(CCc3ccc(C(=O)N[C@@H](CCC(=O)O)C(=O)O)cc3)coc2n1,,,,IC50 (Thymidylate synthase): > 200 µM
COc1ccccc1Sc1oc2nc(N)nc(N)c2c1C,23.9,20.3,55.6,
"CN(Cc1coc2nc(N)nc(N)c12)c1ccc(C(=O)N[C@@H](CCC(=O)O)C(=O)O)cc1 [FURO[2,3D]PYRIMIDINE ANTIFOLATE]",,,,IC50 (Thymidylate synthase): > 200 µM
COc1ccc(OC)c(Sc2oc3nc(N)nc(N)c3c2C)c1,61.9,24,42.2,
Cc1c(Sc2ccc(C(=O)N[C@@H](CCC(=O)O)C(=O)O)cc2)oc2nc(N)nc(N)c12,0.00973,0.078,20.5,IC50 [4]: 12 µM; IC50 (Dihydrofolate reductase [5]): 0.02 µM; IC50 [6]: 2.2 µM; IC50 (Dihydrofolate reductase [7]): 4 µM; IC50 [8]: 27 µM
COc1ccc(Sc2oc3nc(N)nc(N)c3c2C)cc1OC,16.3,36.4,66.6,
COc1cccc(Sc2oc3nc(N)nc(N)c3c2C)c1,28.4,25.2,51.3,
Cc1cccc(C)c1Sc1oc2nc(N)nc(N)c2c1C,,> 20,> 196,IC50 [4]: 19.7 µM; inhibition [9]: 41%; inhibition [10]: 20%; inhibition [11]: 27%
Cc1c(Sc2cccc3ccccc23)oc2nc(N)nc(N)c12,,8.6,> 83,IC50 [4]: > 83 µM
Cc1c(Sc2c(Cl)cccc2Cl)oc2nc(N)nc(N)c12,,60,14.4,
Nc1nc(N)c2c(CNc3ccc(C(=O)N[C@@H](CCC(=O)O)C(=O)O)cc3)coc2n1,,,,IC50 (Thymidylate synthase): > 200 µM
Cc1c(Sc2c(F)c(F)c(C(F)(F)F)c(F)c2F)oc2nc(N)nc(N)c12,,> 31,39.1,inhibition [12]: 8%; inhibition [13]: 39%
Cc1c(Sc2ccc3ccccc3c2)oc2nc(N)nc(N)c12,,> 12,> 12,IC50 [4]: > 12 µM
COc1ccc(Sc2oc3nc(N)nc(N)c3c2C)cc1,25.5,34.7,61.9,
Cc1cccc(C(C)C)c1Sc1oc2nc(N)nc(N)c2c1C,,36.5,,
